Read-outs that look alike come from different tables or passages of the source.
How the values were obtained:
[1] = Partition coefficient in an octanol-water system; format: physicochemical; settings: berberine alone
[2] = Solubility; format: physicochemical
[3] = patients on therapy; cited from earlier work

`COc1ccc2cc3[n+](cc2c1OC)CCc1cc2c(cc1-3)OCO2` [berberine, 5,6-dihydro-9,10-dimethoxybenzo(g)-1,3-benzodioxolo (5,6-a) quinolizinium] showed a logP [1] of 0.0294, a solubility ([2]; aqueous berberine solubility) of 1.57 mg/mL and a solubility ([2]; medium containing SDS (sodium dodecyl sulfate), aqueous with cosolvent or surfactant or cyclodextrin, pH of between 4 and 7, read-out: berberine solubility in the presence of SDS) of 0.01 to 0.06 mg/mL. For the same compound, the solubility ([2]; water, aqueous berberine solubility, read-out: solubility) was 1.57 mg/mL.
In the case of `CN(C)C/C=C/C(=O)Nc1cc2c(Nc3ccc(F)c(Cl)c3)ncnc2cc1O[C@H]1CCOC1` [afatinib], the papulopustular rash reported [3] is given as 90 % of patients.
For ipilimumab: anti-CTLA-4 inhibitor, the maculopapular rash described [3] is given as 33 % of patients.
For `Cn1cnc2c(F)c(Nc3ccc(Br)cc3Cl)c(C(=O)NOCCO)cc21` [selumetinib], the papulopustular rash reported [3] is given as 93 % of patients.
For `NC1(c2ccc(-c3nc4ccn5c(=O)[nH]nc5c4cc3-c3ccccc3)cc2)CCC1` [MK2206], the maculopapular rash described [3] is listed as 52 % of patients.
For `Nc1cc(C(F)(F)F)c(-c2cc(N3CCOCC3)nc(N3CCOCC3)n2)cn1` [BKM-120], the maculopapular rash described [3] is given as 37 % of patients.
For nivolumab: anti-PD-1 inhibitor, the maculopapular rash described [3] is listed as 26 % of patients.
